Reference: paper PMC9421654, “Discovery of Substituted Di(pyridin-2-yl)-1,2,4-thiadiazol-5-amines as Novel Macrofilaricidal Compounds for the Treatment of Human Filarial Infections” (Journal of Medicinal Chemistry, 2022)
Values after ≈ are worked out from the molar mass of the structure shown. Read-outs that look alike come from different tables or passages of the source.

Assays:
[1] = tested on: O. gutturosa adult male worms; test: O. gutturosa adult worm ex vivo assay, motility; type: cell-based, Onchocerca gutturosa
Protocol: (§1) Activity against O. gutturosa adult male worms was determined using reported procedures.[7] The EC50 values were calculated using Microsoft Office Excel (2010) data analysis software. The tested compound is considered active when a motility reduction of ≥50% is observed by comparison to the untreated controls. O. gutturosa adult male worms were obtained postmortem from freshly slaughtered cattle. The worms were dissected from the nuchal ligament connective tissues of naturally infected cattle in Gambia, West Africa; the material was purchased from the International Trypanotolerance Centre, Banjul, from local butchers for use in this study. The adult worms were transferred individually to each well of a sterile 24-well (2 mL) plate (Thermo Fisher Scientific, UK) and maintained for at least 24 h in culture before use. The medium used was a minimum essential medium (MEM) with Earl’s salts and L-glutamine (Life Technologies Ltd., UK) supplemented with 10% heat inactivated newborn calf serum (Life Technologies Ltd., UK), 200 units/mL penicillin, 200 μg/mL streptomycin, and 0.5 μg/mL amphotericin B (Life Technologies Ltd., UK). Only normally active worms were used for the test, and all assays were conducted at 37 °C and 5% CO2. The positive control drug used was Immiticide (melarsomine dihydrochloride, Merial, USA). Known amounts of compounds were solubilized in 1 mL of DMSO. All stock solutions were allowed to stand at room temperature prior to use. The test items (four worms/drug concentration) were compared to untreated controls (six worms) and the positive control (two worms/drug concentration). Drug efficacy was assessed by the measurement of mean worm motility scores on a scale of 0 (immotile) to 10 (maximum) every 24 h, terminating at 120 h, using an Olympus inverted microscope. The results are reported as a percentage of the maximum score obtainable (100%) by calculating the motility index scores. The test drug is considered active when a motility reduction of ≥50% is observed by comparison to the untreated controls. […] In addition, biochemical evaluation of worm viability was assessed using MTT/formazan colorimetry. The MTT assay was carried out after the last motility reading (120 h). Single intact worms were placed in each well of a 48-well plate (Thermo Fisher Scientific, UK) containing 0.5 mL of 0.5 mg/mL MTT (Sigma, UK) in PBS solution and then incubated for 30 min at 37 °C. The worms were removed, blotted carefully, and individually transferred to separate wells of a 96-well microtiter plate, each containing 200 μL of DMSO to solubilize the formazan. After 1 h, the plate was gently agitated to disperse the color evenly and the absorbance value (optical density, OD) of the resulting formazan solution was determined at 490 nm using an absorbance microplate reader (Biotek ELx800, Thermo Fisher Scientific, UK). The results are expressed as the mean OD per drug concentration. Inhibition of formazan formation is correlated with worm damage or death.
Data S1. Onchocerca gutturosa adult male worms EC 50 Curves
Plotted using Graph Pad Prism 7.03, least square original fit, sigmoidal, 4PL
The measurement of mean worm motility every 24 h, terminating at 120 h, serial 1 in 4 drug dilutions to find
activity endpoint and produce EC50 values (geomean, n=2) for motility reduction. (4 worms per drug […]

[2] = tested on: O. gutturosa adult male worms; test: O. gutturosa adult worm ex vivo assay, MTT/formazan viability; type: cell-based, Onchocerca gutturosa; conditions: supplement, SD in brackets in the PDF table, read-out: O. gutturosa EC50 (uM) MTT viability inhibition
Protocol: as §1

[3] = Kinetic solubility measurement; type: physicochemical
Protocol: Kinetic Solubility Measurement: The standard kinetic solubility assay runs on […] concentration range using 10 mM DMSO stock solutions for plating. Single point calibration assay runs in duplicates. Concentration of standards: […] DMSO solutions prepared by diluting 10 mM stock, solution with DMSO. Concentration of samples: 200 µM, 4 µl 10 mM DMSO stock solution diluted with the appropriate buffer to […]. DMSO content:
2%. Buffers: pH=7.4 (0.1M Potassium phosphate buffer, diluted from Sigma 1M P3619-1GA to 0.1 M with MilliQ water), pH=2.2 (0.1M- NaCl pH adjusted with 0.1N HCL), pH=6.8 (0.1M - KH2PO4/K2HPO4), pH=5 (4 .04g of NaOH (Pellets), 8.65g of Glacial Acetic Acid, 11.874g of NaCl. In in 1 liter water. Adjusted to pH to 5 with either 1N NaOH or 1N HCl). The controls were plated from the standard 10 mM DMSO stock and run on the standard concentration (200µM) range of the assay. Incubation time: 24 hours shaking at […] in Millipore Multiscreen HTS filter plate for Aqueous Solubility Assay (MSSLBPC50), on room temperature.
After incubation time filtration with positive pressure manifold was performed. […]

[4] = LogD measurement (octanol-water); type: physicochemical
Protocol: LogD Measurement: Measurement of octanol-water distribution coefficient of samples using a […]
stock solutions for plating. Aqueous Phase: 100mM Buffer, pH=7.4 (0.1M Potassium phosphate buffer, diluted from Sigma 1M P3619-1GA to 0.1 M with MilliQ water), pH=2.2 (0.1M- NaCl pH adjusted with 0.1N HCL), pH=6.8 (0.1M - KH2PO4/K2HPO4), pH=5 (4 .04g of NaOH (Pellets), 8.65g of Glacial Acetic Acid, 11.874g of NaCl. In in 1 liter water. Adjusted to pH to 5 with either 1N NaOH or 1N HCl); Organic Phase: 1-Octanol (O021). Sample Concentration:
1000uM, […] 10 mM DMSO stock solution diluted in […] of organic Phase and […] of aqueous Phase. DMSO content: 10%. The controls were plated from the standard 10 mM DMSO stock and run on the standard concentration ([…]) range of the assay. Incubation time:
Sonication for 30 minutes followed by 24 hours shaking at 750 rpm in 96 deep well plate (VWR

[5] = Liver S9 metabolic stability assay, rat; type: in vitro ADME; conditions: 3 μM, 60 min
Protocol: (§2) Liver S9 Metabolic Stability Assay: Incubations were performed at 37 °C in a Dubnoff Shaking water bath using 2 mL 96-well incubation plates. Rat and human S9 protein concentrations were 0.75 mg/ml and 1.2 mg/ml, respectively. The final concentrations of NADPH, UDPGA, and GSH were 1, 0.5, and 2.5 mM, and the final concentration of PAPS was 0.05 mg/ml. Substrate concentrations were 3µM, incubation time was 60 minutes, and all tests were done in triplicate. The incubation was conducted in 200 mM Tris buffer containing 2 mM magnesium chloride, pH=7.4 and the total incubation volume was 0.5 ml. Samples were analysed via LC-MS/MS and reported as percentage remaining after incubation for 60 minutes. […]

[6] = Liver S9 metabolic stability assay, human; type: in vitro ADME; conditions: 3 μM, 60 min
Protocol: as §2

THLE-2 cells = test: THLE-2 cytotoxicity assay (ATP); conditions: Homo sapiens, THLE-2, read-out: THLE IC50
Protocol: In vitro cytotoxicity of select compounds was tested in a “normal” proliferating transformed human liver epithelial (THLE-2) cell line.[35] Compounds were incubated in THLE-2 cells for 24 and 72 h, and adenosine triphosphate (ATP) levels were used as an indicator of cell viability.
THLE-2 Cytotoxicity Assay: THLE-2 cells (ATCC, catalog #CRL-2706) were plated in LHC-8 Media (Invitrogen, catalog #12679015) supplemented with fetal bovine serum (GE, catalog #SH30088.03), 70 ng/mL phosphoethanolamine (Sigma, catalog #P0503), 5 ng/mL EGF (Sigma, catalog #E9644), 1X penicillin/streptomycin (Gibco, catalog #15140148), and 1X glutamine (Invitrogen, catalog #25030024) in 384-well clear-bottom, black walled plates at a density of 3750 cells/well (15μL/well). After plating, cells were incubated overnight at 37°C in an incubator with 5% CO2 and 90% humidity. Compounds were first serially diluted in dimethyl sulfoxide then diluted in LHC-8 media growth media to 2X concentration. Cells were dosed with 15μL of each dose for final concentrations between 0.01 – 300 μM. Cells were incubated with compounds for 24 or 72 hours. Cytotoxicity was determined with Cell Titer Glo Luminescent ATP Assay (Promega, catalog #G7573) according to the manufacturer’s instructions. Tamoxifen (Sigma, catalog #BC9353476) was used as a positive control. levels at each dose were normalized to that of cells dosed with dimethyl sulfoxide vehicle alone and IC50 values were calculated from non-linear regression fits of dose-response curves plotted

[7] = target: T1, hERG potassium channels (KCNH2, expressed in HEK293 cells) (Homo sapiens, UniProt Q12809); test: hERG inhibition; type: cell-based
T1 construct: expressed in transfected cells

[8] = Onchocerca gutturosa, read-out: O. gutturosa EC50 μM (SD), ex vivo adult worm motility reduction, SD in brackets
[9] = supplement, read-out: measured logD
[10] = Onchocerca gutturosa, read-out: O. gutturosa EC50 (uM) motility inhibition, supplement, SD in brackets in the PDF table

T1 sequence (Q12809 whole entry): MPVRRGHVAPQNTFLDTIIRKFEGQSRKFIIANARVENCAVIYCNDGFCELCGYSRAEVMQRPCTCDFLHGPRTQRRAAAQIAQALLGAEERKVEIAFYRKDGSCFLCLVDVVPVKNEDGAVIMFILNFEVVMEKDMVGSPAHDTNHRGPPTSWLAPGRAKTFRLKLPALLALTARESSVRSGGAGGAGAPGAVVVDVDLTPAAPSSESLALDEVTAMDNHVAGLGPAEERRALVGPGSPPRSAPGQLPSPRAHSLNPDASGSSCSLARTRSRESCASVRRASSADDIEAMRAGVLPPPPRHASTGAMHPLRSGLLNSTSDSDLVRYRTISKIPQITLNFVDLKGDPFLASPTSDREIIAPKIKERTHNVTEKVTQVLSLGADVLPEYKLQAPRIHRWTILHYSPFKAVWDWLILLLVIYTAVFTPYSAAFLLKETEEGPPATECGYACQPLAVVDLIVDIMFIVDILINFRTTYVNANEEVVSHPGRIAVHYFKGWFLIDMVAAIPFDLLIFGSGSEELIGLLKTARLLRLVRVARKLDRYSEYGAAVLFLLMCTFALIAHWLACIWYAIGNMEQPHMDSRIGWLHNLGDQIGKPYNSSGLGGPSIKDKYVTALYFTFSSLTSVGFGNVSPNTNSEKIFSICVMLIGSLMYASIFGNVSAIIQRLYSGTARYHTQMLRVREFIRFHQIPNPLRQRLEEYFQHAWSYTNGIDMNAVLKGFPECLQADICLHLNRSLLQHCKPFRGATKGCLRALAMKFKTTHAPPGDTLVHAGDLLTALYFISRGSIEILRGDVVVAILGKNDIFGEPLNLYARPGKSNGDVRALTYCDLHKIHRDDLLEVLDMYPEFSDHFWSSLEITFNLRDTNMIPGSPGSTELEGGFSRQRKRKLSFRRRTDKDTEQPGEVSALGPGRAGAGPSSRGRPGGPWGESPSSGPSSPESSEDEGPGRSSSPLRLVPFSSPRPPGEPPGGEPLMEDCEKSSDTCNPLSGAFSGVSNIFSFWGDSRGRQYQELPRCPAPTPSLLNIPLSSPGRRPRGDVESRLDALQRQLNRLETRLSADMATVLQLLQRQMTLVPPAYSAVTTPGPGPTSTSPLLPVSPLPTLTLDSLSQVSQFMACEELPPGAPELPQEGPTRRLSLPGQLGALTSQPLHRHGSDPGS

Compound | EC50 [1, 8] [µM] | EC50 ([2]; Onchocerca gutturosa) [µM] | solubility kinetic at 24 h ([3]; 10 mM DMSO stock solutions) [µM] | logD at 24 h ([4]; pH 7.4, read-out: logD) | logD at 24 h [4, 9] | Rat S9 metabolic stability [5] [% remaining] | Human S9 metabolic stability [6] [% remaining] | EC50 [1, 10] [µM] | IC50 (THLE-2 cells) [nM] | EC50 ([1]; adult worm motility, bound stated, read-out: O. gutturosa EC50) [µM] | EC50 ([1]; supplement, SD in brackets in the PDF table, read-out: O. gutturosa EC50 (uM) motility inhibition) [µM] | EC50 [2] [µM] | logD ([4]; pH 7.4) | measured logD ([4]; supplement) | solubility kinetic at 24 h ([3]; supplement) [µM] | IC50 ([7]; supplement) [nM] | IC50 [7] [nM]
CC(C)Oc1ccc(-c2nsc(N(C)c3ncccc3C(C)C)n2)nc1 [Compound 44, 3-(5-Isopropoxypyridin-2-yl)-N-(3-isopropylpyridin-2-yl)-N-methyl-1,2,4-thiadiazol-5-amine] | 1.67 | 1.4 | 121 (≈ 44.7 µg/mL) | 3 | 3 | 4 | 32 |  |  |  |  |  |  |  |  |  | 
c1ccc(Nc2nc(-c3ccccn3)ns2)nc1 [Compound 9, N,3-Di(pyridin-2-yl)-1,2,4-thiadiazol-5-amine] | 0.16 | 1.1 | 8.2 (≈ 2.09 µg/mL) | 1.8 | 1.8 | 83 | 83 | 0.155 |  |  |  |  |  |  |  |  | 
CC(C)Oc1ccc(-c2nsc(Nc3cc(C(F)(F)F)c(C(C)C)cn3)n2)nc1 [Compound 37] | 0.05 | 0.3 | 1.00 (≈ 0.423 µg/mL) | 2.8 | 2.8 | 100 | 100 | 0.053 |  |  |  |  |  |  |  |  | 
Cc1cccnc1N(c1nc(-c2ccc(OC(C)C)cn2)ns1)C(C)C [Compound 43, 3-(5-Isopropoxypyridin-2-yl)-N-isopropyl-N-(3-methylpyridin-2-yl)-1,2,4-thiadiazol-5-amine] | 3.3 | 3.4 | 118 (≈ 43.6 µg/mL) | 3.1 | 3.1 | 60 | 79 |  |  |  |  |  |  |  |  |  | 
COc1cccnc1Nc1nc(-c2ccc(OC(C)C)cn2)ns1 [Compound 28, 3-(5-Isopropoxypyridin-2-yl)-N-(3-methoxypyridin-2-yl)-1,2,4-thiadiazol-5-amine] | 0.08 | 0.62 | 7.25 (≈ 2.49 µg/mL) | 1.7 | 1.7 | 100 | 100 | 0.076 | 7700 |  |  |  |  |  |  |  | 
CC(C)Oc1cc(-c2nsc(Nc3ncccc3N(C)C)n2)ncc1C(F)(F)F [Compound 33] | 0.85 | 0.83 | 1.43 (≈ 0.607 µg/mL) | 3 | 3 | 8 | 100 | 0.852 |  |  |  |  |  |  |  |  | 
3-(3-Methyl-2-pyridyl)-N-(5-pyrrolidin-1-yl-2-pyridyl)-1,2,4-thiadiazol-5-amine [Compound 21] |  |  | 2.17 |  |  | 61 | 86 |  |  | < 0.1 | 0.044 | 0.14 | 2.65 | 2.65 |  |  | 
CC(=O)Nc1cccnc1Nc1nc(-c2ccc(OC(C)C)cn2)ns1 [Compound 46] | 1.27 | 1.37 | 29.4 (≈ 10.9 µg/mL) | 2.4 | 2.4 |  |  |  |  |  |  |  |  |  | 29.5 (≈ 10.9 µg/mL) | > 30000 | 
Cc1cccnc1Nc1nc(-c2ccc(OC3CCN(C4CC4)CC3(F)F)cn2)ns1 (centres unmarked) [Compound 20, 3-(5-((1-Cyclopropyl-3,3-difluoropiperidin-4-yl)oxy)pyridin-2-yl)-N-(3-methylpyridin-2-yl)-1,2,4-thiadiazol-5-amine] | 0.24 | 0.3 |  | 2.8 | 2.8 | 32 | 52 | 0.236 |  |  |  |  |  |  |  |  | > 30000
Cc1cccnc1Nc1nc(-c2cc(C(=O)N(C)C)ccn2)ns1 [Compound 16] | 3.28 | 1.1 | 26.5 (≈ 9.02 µg/mL) | 1.9 | 1.9 | 78 | 89 |  |  |  |  |  |  |  |  |  | 
